Source: US12310975B2, “Modulators of BCL6 proteolysis and associated methods of use” (Arvinas Operations, Inc., priority 2019, dated 2025)
One block for each compound: values may come before it.

Tests used:
BCL6 [1] = biological target: T1, BCL6 (Homo sapiens (Human), UniProt P41182); test: BCL6 TR-FRET assay (BCL6-Avitag-Biotin / BCoR-Cy5 peptide); assay type: binding; conditions: for IC50: read-out: IC50
Description: Protein Synthesis. BCL6 protein was expressed by transforming Invitrogen One Shot cells with GS63525 pET24a-His-SUMO-TEV-BCLm-Avitag plasmid following manufacturer's instructions. In addition, biotin at a final concentration of 50 μM, and IPTG at a final concentration of 1 mM was added to the culture and incubated at room temperature shaking overnight.
Assay buffer A: 50 mM HEPES pH 7.5, 125 mM NaCl, 0.01% TritonX.
Assay buffer B (made fresh): buffer A+1 mM Glutathione (or 0.5 mM DTT).
Assay buffer C (made fresh): buffer B+0.03% BSA.
Black Proxy plates, 96 well.
15 μl final reaction volumes (BCoR-Cy5 100 nM, SA-Eu 2 nM, BCL6-avitag 2 nM).
[…] BCL6-Avitag-Biotin stock: made fresh by adding 2 μl of BCL6-Avitag-Biotin to 31.5 ml Buffer C.
1 mM BCoR-Cy5 peptide (LifeTein) stock in Dimethylformamide (DMF).
300 nM BCoR-Cy5 working stock: made fresh by adding 4.5 μl of the 1 mM BCoR-Cy5 peptide stock to 15 ml Buffer B.
10 μM Eu-Streptavidin (Lance Eu-W1024 Streptavidin, PerkinElmer) stock solution.
6 nM Eu-Streptavidin working stock: made fresh by adding 9 μl Eu-Streptavidin stock solution to 15 ml Buffer A.
Compounds were diluted to 10 mM. Twenty microliters of DMSO was aliquoted to each well of the microtiter plates. From the 10 mM compound stock, 8.7 ul was aliquoted to the 20 ul DMSO and 3-fold serial dilutions (12 pt 3-0.01 uM tritration plate, 96 well, 100% DMSO) performed. Five ul from the titration plate wells was aliquoted to 45 ul Buff C (Intermediate dilution plates, 10% DMSO).
Spot 1.5 μl compound titrations to 384-well plates in duplicate, and spot 3.5 μl [8.5 nM] BCL6-bio protein to each well. The plate was mix briefly, centrifuged, and incubated for 30 minutes at room temperature.
Mix 14 mls of BCoR-Cy5 [300 nM] and 14 mls [6 nM] Eu-Streptavidin. Spot 10 μl BCoR-Cy5/SA-Eu (1:1) mix to each well. The plates were incubated for 2 hours and then read on an Envision plate reader.

BCL6 [2] = biological target: T1, BCL6; test: Immunofluorescence high content imaging of BCL6 degradation in T47D cells; assay type: cell-based
Method in brief: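 T47D cells were treated for 3 days at 37 °C with 11-point 3-fold dilutions of bifunctional degrader (final top 0.1 or 1 μM). BCL6 was detected by immunofluorescence after PFA fixation, with Hoechst and cell mask counterstains, and imaged at 10×, 4 fields/well.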

EC50 (BCL6 [1]): > 100 nM
Compound: CNC(=O)COc1cc2cc(Nc3nc(N4CCC[C@H](COc5cccc6c5C(=O)N(C5CCC(=O)NC5=O)C6=O)C4)ncc3Cl)ccc2n(C)c1=O (stereo partly drawn) [compound 192, 2-((6-((5-chloro-2-((3S)-3-(((2-(2,6-dioxopiperidin-3-yl)-1,3-dioxoisoindolin-4-yl)oxy)methyl)piperidin-1-yl)pyrimidin-4-yl)amino)-1-methyl-2-oxo-1,2-dihydroquinolin-3-yl)oxy)-N-methylacetamide]

EC50 (BCL6 [1]): > 100 nM
Compound: Cn1c(=O)c(OC2COC2)cc2cc(Nc3nc(N4CCC(CN5CCN(c6ccc7c(c6)C(=O)N(C6CCC(=O)NC6=O)C7=O)CC5)CC4)ncc3Cl)ccc21 (stereo not drawn) [compound 223, 5-(4-((1-(5-chloro-4-((1-methyl-3-(oxetan-3-yloxy)-2-oxo-1,2-dihydroquinolin-6-yl)amino)pyrimidin-2-yl)piperidin-4-yl)methyl)piperazin-1-yl)-2-(2,6-dioxopiperidin-3-yl)isoindoline-1,3-dione]

Dmax (BCL6 [2]; T47D cells): ≥ 70%
IC50 (BCL6 [2]; T47D cells): < 10 nM
Compound: CNC(=O)COc1cc2cc(Nc3nc(N4CCC(CN5CC6(CCN(c7cccc(C(=O)NC8CCC(=O)NC8=O)c7F)CC6)C5)CC4)ncc3Cl)ccc2n(C(C)C)c1=O (stereo not drawn) [compound 440, 3-[2-({1-[5-chloro-4-({3-[(methylcarbamoyl)methoxy]-2-oxo-1-(propan-2-yl)-1,2-dihydroquinolin-6-yl}amino)pyrimidin-2-yl]piperidin-4-yl}methyl)-2,7-diazaspiro[3.5]nonan-7-yl]-N-(2,6-dioxopiperidin-3-yl)-2-fluorobenzamide]

IC50 (BCL6 [1]): ≥ 100 nM
Compound: CNC(=O)COc1cc2cc(Nc3nc(N4CCC(O[C@H]5C[C@H](Oc6ccc7c(c6)C(=O)N(C6CCC(=O)NC6=O)C7=O)CN(C)C5)CC4)ncc3Cl)ccc2n(C(C)C)c1=O (stereo partly drawn) [compound 459, 2-[(6-{[5-chloro-2-(4-{[(3S,5S)-5-{[2-(2,6-dioxopiperidin-3-yl)-1,3-dioxo-2,3-dihydro-1H-isoindol-5-yl]oxy}-1-methylpiperidin-3-yl]oxy}piperidin-1-yl)pyrimidin-4-yl]amino}-2-oxo-1-(propan-2-yl)-1,2-dihydroquinolin-3-yl)oxy]-N-methylacetamide]

IC50 (BCL6 [1]): ≥ 100 nM
Compound: CNC(=O)COc1cc2cc(Nc3nc(N4CCC(O[C@@H]5C[C@H](COc6ccc7c(c6)C(=O)N(C6CCC(=O)NC6=O)C7=O)N(C)C5)CC4)ncc3Cl)ccc2n(C(C)C)c1=O (stereo partly drawn) [compound 460, 2-[(6-{[5-chloro-2-(4-{[(3R,5R)-5-({[2-(2,6-dioxopiperidin-3-yl)-1,3-dioxo-2,3-dihydro-1H-isoindol-5-yl]oxy}methyl)-1-methylpyrrolidin-3-yl]oxy}piperidin-1-yl)pyrimidin-4-yl]amino}-2-oxo-1-(propan-2-yl)-1,2-dihydroquinolin-3-yl)oxy]-N-methylacetamide]

IC50 (BCL6 [1]): ≥ 100 nM
Compound: CNC(=O)COc1cc2cc(Nc3nc(N4CCC(O[C@@H]5C[C@@H](Oc6ccc7c(c6)C(=O)N(C6CCC(=O)NC6=O)C7=O)CN(C)C5)CC4)ncc3Cl)ccc2n(C(C)C)c1=O (stereo partly drawn) [compound 464, 2-[(6-{[5-chloro-2-(4-{[(3R,5R)-5-{[2-(2,6-dioxopiperidin-3-yl)-1,3-dioxo-2,3-dihydro-1H-isoindol-5-yl]oxy}-1-methylpiperidin-3-yl]oxy}piperidin-1-yl)pyrimidin-4-yl]amino}-2-oxo-1-(propan-2-yl)-1,2-dihydroquinolin-3-yl)oxy]-N-methylacetamide]

Dmax (BCL6 [2]; T47D): 50 to 70%
Compound: CNC(=O)COc1cc2cc(Nc3nc(N4CCC(C5(N6CCC(c7ccc8c(c7)C(=O)N(C7CCC(=O)NC7=O)C8=O)CC6)CC5)CC4)ncc3Cl)ccc2n(C)c1=O (stereo not drawn) [compound 482, 2-{[6-({5-chloro-2-[4-(1-{4-[2-(2,6-dioxopiperidin-3-yl)-1,3-dioxo-2,3-dihydro-1H-isoindol-5-yl]piperidin-1-yl}cyclopropyl)piperidin-1-yl]pyrimidin-4-yl}amino)-1-methyl-2-oxo-1,2-dihydroquinolin-3-yl]oxy}-N-methylacetamide]

The next lines start with the compound.

Compound: CNC(=O)COc1cc2cc(Nc3nc(N4CCC(CN5CC6(CCN(c7cccc(C(=O)NC8CCC(=O)NC8=O)c7OC)CC6)C5)CC4)ncc3Cl)ccc2n(C(C)C)c1=O (stereo not drawn) [compound 441, 3-[2-({1-[5-chloro-4-({3-[(methylcarbamoyl)methoxy]-2-oxo-1-(propan-2-yl)-1,2-dihydroquinolin-6-yl}amino)pyrimidin-2-yl]piperidin-4-yl}methyl)-2,7-diazaspiro[3.5]nonan-7-yl]-N-(2,6-dioxopiperidin-3-yl)-2-methoxybenzamide]
IC50 (BCL6 [2]; T47D cells): ≥ 100 nM

Compound: CNC(=O)COc1cc2cc(Nc3nc(N4CCC(CN5CCC6(CC5)CN(c5cccc7c5CN(C5CCC(=O)NC5=O)C7=O)C6)CC4)ncc3Cl)ccc2n(C(C)C)c1=O (stereo not drawn) [compound 442, 2-{[6-({5-chloro-2-[4-({2-[2-(2,6-dioxopiperidin-3-yl)-1-oxo-2,3-dihydro-1H-isoindol-4-yl]-2,7-diazaspiro[3.5]nonan-7-yl}methyl)piperidin-1-yl]pyrimidin-4-yl}amino)-2-oxo-1-(propan-2-yl)-1,2-dihydroquinolin-3-yl]oxy}-N-methylacetamide]
Dmax (BCL6 [2]; T47D cells): ≥ 70%
IC50 (BCL6 [2]; T47D cells): < 10 nM

Compound: CNC(=O)COc1cc2cc(Nc3nc(N4CCC5(CC4)CN(CC4CCN(c6cccc7c6CN(C6CCC(=O)NC6=O)C7=O)CC4)C5)ncc3Cl)ccc2n(C(C)C)c1=O (stereo not drawn) [compound 443, 2-{[6-({5-chloro-2-[2-({1-[2-(2,6-dioxopiperidin-3-yl)-1-oxo-2,3-dihydro-1H-isoindol-4-yl]piperidin-4-yl}methyl)-2,7-diazaspiro[3.5]nonan-7-yl]pyrimidin-4-yl}amino)-2-oxo-1-(propan-2-yl)-1,2-dihydroquinolin-3-yl]oxy}-N-methylacetamide]
Dmax (BCL6 [2]; T47D cells): 50 to 70%
IC50 (BCL6 [2]; T47D cells): < 10 nM

Compound: CNC(=O)COc1cc2cc(Nc3nc(N4CCC(OC5CC6(CCN(c7cccc(C(=O)NC8CCC(=O)NC8=O)c7OC)CC6)C5)CC4)ncc3Cl)ccc2n(C(C)C)c1=O (stereo not drawn) [compound 449, 3-[2-({1-[5-chloro-4-({3-[(methylcarbamoyl)methoxy]-2-oxo-1-(propan-2-yl)-1,2-dihydroquinolin-6-yl}amino)pyrimidin-2-yl]piperidin-4-yl}oxy)-7-azaspiro[3.5]nonan-7-yl]-N-(2,6-dioxopiperidin-3-yl)-2-methoxybenzamide]
Dmax (BCL6 [2]; T47D): 50 to 70%

Compound: CNC(=O)COc1cc2cc(Nc3nc(N4CCC(O[C@H]5C[C@@H](COc6ccc7c(c6)C(=O)N(C6CCC(=O)NC6=O)C7=O)N(C)C5)CC4)ncc3Cl)ccc2n(C(C)C)c1=O (stereo partly drawn) [compound 456, 2-[(6-{[5-chloro-2-(4-{[(3S,5S)-5-({[2-(2,6-dioxopiperidin-3-yl)-1,3-dioxo-2,3-dihydro-1H-isoindol-5-yl]oxy}methyl)-1-methylpyrrolidin-3-yl]oxy}piperidin-1-yl)pyrimidin-4-yl]amino}-2-oxo-1-(propan-2-yl)-1,2-dihydroquinolin-3-yl)oxy]-N-methylacetamide]
IC50 (BCL6 [1]): ≥ 100 nM

Compound: CNC(=O)COc1cc2cc(Nc3nc(N4CCC(O[C@H]5C[C@@H](Oc6ccc7c(c6)C(=O)N(C6CCC(=O)NC6=O)C7=O)CN(C)C5)CC4)ncc3Cl)ccc2n(C(C)C)c1=O (stereo partly drawn) [compound 457, 2-[(6-{[5-chloro-2-(4-{[(3S,5R)-5-{[2-(2,6-dioxopiperidin-3-yl)-1,3-dioxo-2,3-dihydro-1H-isoindol-5-yl]oxy}-1-methylpiperidin-3-yl]oxy}piperidin-1-yl)pyrimidin-4-yl]amino}-2-oxo-1-(propan-2-yl)-1,2-dihydroquinolin-3-yl)oxy]-N-methylacetamide]
IC50 (BCL6 [1]): ≥ 100 nM

Compound: CNC(=O)COc1cc2cc(Nc3nc(N4CCN(C(C)(C)C5CCN(c6ccc(OC)c(C(=O)NC7CCC(=O)NC7=O)c6F)CC5)CC4)ncc3Cl)ccc2n(C)c1=O (stereo not drawn) [compound 468, 3-[4-(2-{4-[5-chloro-4-({1-methyl-3-[(methylcarbamoyl)methoxy]-2-oxo-1,2-dihydroquinolin-6-yl}amino)pyrimidin-2-yl]piperazin-1-yl}propan-2-yl)piperidin-1-yl]-N-(2,6-dioxopiperidin-3-yl)-2-fluoro-6-methoxybenzamide]
Dmax (BCL6 [2]; T47D): ≥ 70%

Compound: CNC(=O)COc1cc2cc(Nc3nc(N4CCC(O[C@@H]5C[C@@H](COc6cccc7c6C(=O)N(C6CCC(=O)NC6=O)C7=O)N(C)C5)CC4)ncc3Cl)ccc2n(C(C)C)c1=O (stereo partly drawn) [compound 478, 2-[(6-{[5-chloro-2-(4-{[(3R,5S)-5-({[2-(2,6-dioxopiperidin-3-yl)-1,3-dioxo-2,3-dihydro-1H-isoindol-4-yl]oxy}methyl)-1-methylpyrrolidin-3-yl]oxy}piperidin-1-yl)pyrimidin-4-yl]amino}-2-oxo-1-(propan-2-yl)-1,2-dihydroquinolin-3-yl)oxy]-N-methylacetamide]
IC50 (BCL6 [1]): ≥ 100 nM
